Reference: US20060052435A1, “Selective dopamin d3 receptor agonists for the treatment of sexual dysfunction” (priority 2001, published 2006)

Assays:
[1] = tested on: telemetry rats; test: rat telemetry model of erection (intracavernosal pressure); type: in vivo
Procedure: Erectile responses were recorded by measuring intracavernosal pressure and/or clitoral/vaginal blood flow using surgically implanted telemetric device. The specific details of the surgical procedures, data acquisition and analysis can be found in detail in Bernabe J, Rampin O, Sachs B D, Giuliano F. Intracavernous pressure during erection in rats: an integrative approach based on telemetric recording. Am. J. Physiol.

[2] = emesis in the chloralose anaesthetised dog; conditions: male, beagle, dog, in vivo, 3000 μg kg^−1
Procedure: (§1) Male beagles, 11-17 kg were used. Following an overnight fast, animals were anaesthetised with chloralose (80 mg kg^−1 i.v.), having first been injected with an anaesthetic dose of the short acting barbiturate, thiopentone (15 mg kg^−1 i.v.). Following tracheal intubation, which ensured a patent airway even during the expulsion phase of the emetic response, the left femoral vein and artery were cannulated for further administration of anaesthetic and for recording haemodynamic parameters, respectively. […] During the stabilisation period, respiratory rate was monitored to ensure that central respiratory centres were not deeply depressed, since the CNS efferent component of the emetic reflex is essentially conveyed via respiratory motor neurones. […] Animals were observed closely for 30 min post-dose and motor (e.g. swallowing, eye blinking, limb movements, changes in respiratory rate and depth, retching and vomiting) and haemodynamic changes noted and recorded. […] At the end of an experiment animals were sacrificed with an overdose of pentobarbitone.
(§2) Observations made on individual animals were used to determine the percentage of animals that retched when injected with a particular dose level of test compound. Percentage of animals retching was then used to construct a dose response curve and an ED50 value determined from the appropriate curve.

[3] = tested on: anaesthetised dog; test: emesis in the chloralose anaesthetised dog
Procedure: as §1, §2

[4] = tested on: anaesthetised dog; test: haemodynamics in the anaesthetised dog; type: in vivo; conditions: for effect on mean blood pressure / effect on total vascular resistance (TVR; TPR) / effect on cardiac output and heart rate: s.c., hydrochloride; for effect on mean blood pressure / effect on total vascular resistance (TVR; TPR): doses up to 3000 μg/kg
Text: Male beagles were anaesthetised with a mixture of chloralose and urethane, following pre-medication with piritramide. They were instrumented to measure arterial blood pressure, cardiac output, E.C.G., pudendal artery blood flow (PAF) and intra-cavernosal pressure (ICP). Other parameters such as heart rate and vascular resistance were derived from the primary signals. Following a period of equilibration, a series of control readings were taken and the effects of pelvic nerve stimulation at 4 and 8 Hz, on ICP and PAF were measured. Compounds were administered subcutaneously in the dorsal neck region via an implanted catheter, in the dose range of 0.3-3000 μg(base)/kg. Following each dose, parameters were measured at fixed intervals for 30 min.
Results were analysed as percent change from the final control values for each dog and mean values for three dogs were used.

[5] = at 3000 μg/kg, haemodynamic study

CCCN1CCO[C@H](c2cccc(O)c2)C1.Cl [Example 8, R-(−)-3-(4-Propylmorpholin-2-yl)phenol hydrochloride]
erections/10 minutes in the telemetry rat ([1]; 10 μg/kg s.c.): 2.25±0.25 erections/10 minutes | free plasma concentration at which prosexual effects were observed ([1]; rat telemetry model, FIG. 1): circa 1 nM | concentration at 15 min [2]: ~1000 nM | free plasma concentration relative to the D3 EC50 ([3]; at 3000 μg/kg, emesis study): approximately 270 fold | dose at which emesis was observed ([3]; s.c., escalating doses 3-3000 μg kg^−1): > 3 mg/kg | free plasma concentration of the corresponding samples [4, 5]: 2700 nM | free plasma concentration relative to the D3 EC50 [4, 5]: approximately 270 fold | Geometric mean ED30 (fall in TPR) ([4]; dog, in vivo): No effect | effect on mean blood pressure [4]: No significant effect | effect on total vascular resistance (TVR; TPR) [4]: No significant effect | effect on mean blood pressure ([4]; listed as selective D3 agonist): no significant effects | effect on total vascular resistance (TVR; TPR) ([4]; listed as selective D3 agonist): no significant effects | effect on cardiac output and heart rate [4]: no significant effect | effect on cardiac output and heart rate ([4]; listed as selective D3 agonist): no significant effects
